The record followed here is article PMC7076710, “Synthesis, Identification, and Structure–Activity Relationship Analysis of GATA4 and NKX2-5 Protein–Protein Interaction Modulators” (Journal of Medicinal Chemistry, 2019).

Molecules are shown by their SMILES.

The target in the assay is T1, GATA4–NKX2-5 transcriptional synergy (Mus musculus, UniProt P42582+Q08369).
T1 construct: expressed in transfected cells; host or cells: COS-1
Briefly: GATA4–NKX2-5 transcriptional synergy luciferase reporter assay (3xNKE reporter, COS-1 cells). It is filed as cell-based. The procedure:
To screen compounds for the GATA4–NKX2-5 interaction, we have developed a luciferase reporter assay based on their property to activate gene transcription synergistically through the NKX2-5 binding site on DNA.[28] In this assay, we transfected mammalian COS-1 cells with protein expression vectors for GATA4 and NKX2-5 proteins together with artificial luciferase reporter vector containing three high affinity binding sites for NKX2-5 (NKE). […] All 257 compounds were tested in two concentrations, 3 and 10 μM. Compounds either inhibited, enhanced, or had no effect on the GATA4–NKX2-5 transcriptional synergy. To investigate the selectivity of the active compounds, we tested their effects on NKX2-5 transcriptional activity by using the same luciferase reporter vector as in transcriptional synergy assay with three NKE sites (Figure 3B). Furthermore, we used GATA luciferase reporter assay to examine if compounds have an effect on GATA4 transcriptional activity. In this assay, we cotransfected the cells with a GATA4 protein expression vector and a reporter vector with tandem GATA4 binding sites (Figure 3C). Previously we have reported that compound 1 inhibited the GATA4–NKX2-5 transcriptional synergy at micromolar concentrations (IC50 = 3 μM).[29]
The plasmids expressing mouse GATA4 protein, pMT2-GATA4, and empty pMT2 were gifts from D. B. Wilson (Department of Pediatrics, St. Louis Children’s Hospital, St. Louis, MO).[44] The plasmids expressing mouse NKX2-5 protein, pMT2-NKX2-5, have been described earlier.[28] The luciferase reporter plasmid used in GATA4–NKX2-5 transcriptional synergy assay and NKX transcriptional assay, pGL3-3xHA, contains three high affinity binding sites for NKX2-5.[28] The luciferase reporter plasmid used in GATA transcriptional assay, NP-112, contains tandem GATA-sites and minimal promoter of rat brain natriuretic peptide (BNP) gene.[45] The pGL3-BNP luciferase reporter containing −534/+4 bp rat BNP proximal promoter described previously was used in hypertrophy assay.[46]
The primary screening assay of compounds’ effect on GATA4–NKX2-5 transcriptional synergy and COS-1 cell culturing has been described earlier.[33] […] (Kinnunen et al., unpublished observation). Briefly, COS-1 cells were seeded at 14 000 cells/well in Isoplate-96 microplates (PerkinElmer, Turku, Finland) and grown overnight. The cells were transfected with the luciferase reporter plasmid pGL3-3xHA 100 ng/well and equal amounts of expression plasmids pMT2-GATA4 and pMT2-NKX2-5 total 50 ng/well. To verify the synergistic effect, the cells were transfected with pMT2-GATA4 or pMT2-NKX2-5 25 ng/well, and the total DNA concentration was adjusted to 50 ng/well with empty pMT2 plasmid. In NKX2-5 and GATA4 luciferase reporter assays, the cells were transfected with reporter plasmid pGL3-3xHA or NP-112 (100 ng/well) and expression plasmid pMT2-NKX2-5 or pMT2-GATA4 (25 ng/well). The ratio of DNA/transfection reagent (Fugene 6, Promega) was 1:3 in all assays. The transfections were performed in serum and antibiotics free media for 6 h. The cells were treated with compounds or vehicle (0.1% DMSO) for 24 h, and the luminescence was measured using neolite Reporter Gene Assay System (PerkinElmer, Turku, Finland) and Victor2 plate reader (PerkinElmer, Turku, Finland).
Raw luciferase data were analyzed in Excel, and clear outliers were removed from triplicates by using the Grubb’s test. Data analysis was performed using R.[49] The luciferase data were first normalized on the basis of the combined mean value of controls. For data visualization and creation of figures, the following R packages were used: ggplot2, cowplot, RColorBrewer, and pheatmap. The heatmaps of the toxicity data were produced with GraphPad Prism 7.00 (GraphPad Software, La Jolla, CA). Statistical significance of luciferase reporter assay data was evaluated by randomized block analysis of variance followed by Dunnett’s post hoc test. […]

[1] abbreviates: COS-1, compound 3 µM, luciferase reporter activity, spread in separate STDEV column.
Where [2] appears, read: COS-1, compound 10 µM, luciferase reporter activity, spread in separate STDEV column.
[3] abbreviates: COS-1, 3 µM, luciferase reporter activity, % of control.
The mark [4] stands for this setting: COS-1, 10 µM, luciferase reporter activity, % of control.
Where [5] appears, read: COS-1, GATA4-NKX2-5 transcriptional synergy luciferase reporter assay, compound at 3 µM.
Where [6] appears, read: COS-1, GATA4-NKX2-5 transcriptional synergy luciferase reporter assay, compound at 10 µM.
Where [7] appears, read: COS-1, compound at 3 µM, luciferase reporter activity, % of control.
The mark [8] stands for this setting: COS-1, compound at 10 µM, luciferase reporter activity, % of control.
Setting [9] is: 3 µM compound, GATA4–NKX2-5 transcriptional synergy reporter, COS-1 cells.
The mark [10] stands for this setting: 10 µM compound, GATA4–NKX2-5 transcriptional synergy reporter, COS-1 cells.
The mark [11] stands for this setting: COS-1, compound 3 µM, luciferase reporter activity relative to control.
The mark [12] stands for this setting: COS-1, compound 10 µM, luciferase reporter activity relative to control.

T1 sequence (Q08369 whole entry): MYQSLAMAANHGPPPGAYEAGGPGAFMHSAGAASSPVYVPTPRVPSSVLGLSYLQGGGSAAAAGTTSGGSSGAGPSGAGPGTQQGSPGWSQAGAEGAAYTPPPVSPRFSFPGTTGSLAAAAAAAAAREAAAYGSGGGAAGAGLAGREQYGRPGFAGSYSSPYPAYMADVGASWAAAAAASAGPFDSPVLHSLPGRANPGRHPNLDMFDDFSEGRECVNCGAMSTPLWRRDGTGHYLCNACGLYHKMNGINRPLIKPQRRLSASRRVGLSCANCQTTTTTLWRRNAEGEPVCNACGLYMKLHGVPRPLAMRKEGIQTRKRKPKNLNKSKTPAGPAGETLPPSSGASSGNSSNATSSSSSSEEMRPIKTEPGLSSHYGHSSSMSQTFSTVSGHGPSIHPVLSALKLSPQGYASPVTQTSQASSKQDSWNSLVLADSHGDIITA
T1 sequence (P42582 whole entry): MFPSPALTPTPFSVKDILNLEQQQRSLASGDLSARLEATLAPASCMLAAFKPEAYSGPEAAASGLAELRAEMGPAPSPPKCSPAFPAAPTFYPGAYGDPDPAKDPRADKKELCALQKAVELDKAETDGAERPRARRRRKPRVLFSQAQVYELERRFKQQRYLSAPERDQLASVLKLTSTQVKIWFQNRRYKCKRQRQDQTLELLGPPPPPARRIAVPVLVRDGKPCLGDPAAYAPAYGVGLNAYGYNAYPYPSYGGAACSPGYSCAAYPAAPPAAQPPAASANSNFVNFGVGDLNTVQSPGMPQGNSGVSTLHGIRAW

As for `CCSCCOC(=O)c1ccc(NC(=O)c2c(-c3ccccc3)noc2C)cc1` [SI1], the activity at 3 µM under setting [1] came to 115%. In addition, the activity at 10 µM under setting [2] came out at 104%.

`CCCCCc1ccc(C(=O)Nc2c(-c3ccccc3)noc2C)cc1` [SI34]: under setting [3], the activity at 3 µM is 97.8%. The activity at 10 µM under setting [4] is 77.6%.

With `CCC1(C)Oc2ccc(NC(=O)c3cnoc3-c3ccc(C)o3)cc2O1` (stereo not shown) [SI125], the activity at 3 µM under setting [5] stood at 106%. Also, the activity at 10 µM under setting [6] stood at 91.7%.

On to `Cc1onc(-c2ccccc2)c1NC(=O)Nc1ccc(OC(F)(F)F)cc1` [SI23], for which, under setting [7], the activity at 3 µM is 109%. Further, the activity at 10 µM under setting [8] was 68.7%.

Turning to `Cc1onc(-c2ccccc2)c1C(=O)Nc1ccc2c(c1)C(=O)CC(C)(C)O2` [SI39], the activity at 3 µM under setting [9] was found to be 123%. Under setting [10], the activity at 10 µM came to 106%.

For `Cc1cc(NC(=O)c2c(-c3cccc([N+](=O)[O-])c3)noc2C)ccc1C(C)C` [SI52], the activity at 3 µM under setting [7] was 93.1%. Besides, the activity at 10 µM under setting [8] was 91%.

As for `CCN(CC)c1ccc(C(=O)Nc2c(C)noc2C)cc1` [SI21], the activity at 3 µM under setting [3] amounted to 113%. Besides, the activity at 10 µM under setting [4] came to 97.4%.

As for `CCC(C)NC(=O)c1cc(-c2ccco2)on1` (stereo not shown) [Compound 69], the activity at 3 µM under setting [1] was 127%. Besides, the activity at 10 µM under setting [2] worked out at 138%.

For `CCN(CC)c1ccc(NC(=O)c2c(-c3ccc(-c4ccc(F)cc4)cc3)noc2C)cc1` [Compound 39j], the activity at 3 µM under setting [9] was determined as 115%. In addition, under setting [10], the activity at 10 µM is 114%.

In the case of `COc1ccc(NC(=O)c2cnoc2-c2ccccc2)cc1` [SI70], the activity at 3 µM under setting [7] worked out at 109%. Moreover, under setting [8], the activity at 10 µM turned out to be 100%.

As to `Cc1onc(-c2ccccc2)c1C(=O)N(N)S(=O)(=O)c1ccccc1` [SI27], the activity at 3 µM under setting [7] turned out to be 106%. The activity at 10 µM under setting [8] is 113%.

Consider `O=C(Nc1ccc2c(c1)OC(F)(F)O2)c1cc(-c2ccco2)on1` [SI122], for which, under setting [5], the activity at 3 µM stood at 91.8%. Also, the activity at 10 µM under setting [6] is 102%.

Regarding `COC(=O)c1c(-c2ccccc2)nnn1CC1CCCO1` (stereo not shown) [SI61], the activity at 3 µM under setting [11] came to 101%. Besides, the activity at 10 µM under setting [12] was found to be 100%.

As to `CCN(CC)c1ccc(NS(=O)(=O)c2c(-c3ccccc3)noc2C)cc1` [Compound 21, N-[4-(Diethylamino)phenyl]-5-methyl-3-phenylisoxazole-4-sulfonamide], the activity at 3 µM under setting [11] turned out to be 104%.

Regarding `Cc1onc(-c2ccccc2)c1C(=O)Nc1ccc(C(=O)Nc2ccccc2)cc1` [SI11], the activity at 3 µM under setting [7] is 80.1%. The activity at 10 µM under setting [8] amounted to 98.5%.

As for `Cc1onc(-c2ccccc2)c1/N=C/c1ccc(C(C)N(C)C)cc1` (stereo not shown) [SI45], the activity at 3 µM under setting [3] turned out to be 88.4%. The activity at 10 µM under setting [4] worked out at 98.2%.

For the compound `CC(=O)c1ccc(NC(=O)c2cc(-c3ccco3)on2)cc1` [Compound 70], the activity at 3 µM under setting [1] was 115%.

Regarding `CCN(CC)c1ccc(NC(=O)c2c(-c3ccccn3)noc2C)cc1` [Compound 59], the activity at 3 µM under setting [5] was 90.9%. Under setting [6], the activity at 10 µM was 104%.

As to `Cc1cc(-c2onc(C)c2C(=O)N(C)c2ccc3oc(-c4ccccc4)cc(=O)c3c2)no1` [SI77], under setting [1], the activity at 3 µM was found to be 122%. In addition, the activity at 10 µM under setting [2] was found to be 121%.

With `Cc1onc(-c2ccccc2)c1C(=O)Nc1ccc(C(=O)OCc2ccco2)cc1` [SI2], under setting [1], the activity at 3 µM stood at 99.4%. Under setting [2], the activity at 10 µM was found to be 82.7%.

With `CCN(CC)c1ccc(NC(=O)c2c(-c3ccccc3[N+](=O)[O-])noc2C)cc1` [Compound 39h], under setting [7], the activity at 3 µM was 89.5%.

In the case of `CCN(CC)c1ccc(/N=C/c2c(-c3ccccc3)noc2C)cc1` [Compound 19, (E)-N^1,N^1-Diethyl-N^4-[(5-methyl-3-phenylisoxazol-4-yl)methylene]benzene-1,4-diamine], the activity at 3 µM under setting [9] was determined as 102%. In addition, the activity at 10 µM under setting [10] is 99.7%.

In the case of `CCN(c1ccc(NC(=O)c2c(-c3ccccc3)noc2C)cc1[N+](=O)[O-])C(C)C` [Compound 8, N-[4-[Ethyl(isopropyl)amino]-3-nitrophenyl]-5-methyl-3-phenylisoxazole-4-carboxamide], under setting [7], the activity at 3 µM was determined as 76.3%.

Turning to `Cc1cc(NC(=O)c2c(C)noc2-c2ccccc2)ccc1C(C)C` [SI72], the activity at 3 µM under setting [11] turned out to be 102%. Besides, the activity at 10 µM under setting [12] came to 95%.

On to `Cc1cc(C(=O)Nc2ccc3oc(-c4ccccc4)cc(=O)c3c2)c(-c2ccccc2)o1` [SI101], for which the activity at 3 µM under setting [9] amounted to 90.8%. Under setting [10], the activity at 10 µM worked out at 78%.

For the compound `Cc1onc(-c2ccccc2)c1N=Cc1ccc(N(CCO)CCO)cc1` [SI42], the activity at 3 µM under setting [3] amounted to 82.9%. Besides, the activity at 10 µM under setting [4] was 118%.

As for `CCN(CC)c1ccc(NC(=O)c2c(-c3ccccc3)nnn2Cc2ccccc2)cc1` [SI60], the activity at 3 µM under setting [11] came out at 97.8%. Moreover, the activity at 10 µM under setting [12] amounted to 72.4%.

On to `CCN(CC)c1ccc(N(C)C(=S)c2c(-c3ccccc3)noc2C)cc1` [Compound 26], for which the activity at 3 µM under setting [11] came to 92.9%.

As for `CCc1noc(C)c1C(=O)Nc1ccc2oc(-c3ccccc3)cc(=O)c2c1` [SI50], the activity at 3 µM under setting [9] is 91.4%. Also, the activity at 10 µM under setting [10] is 97.4%.

For `CCN(CC)c1ccc(N(Cc2c(-c3ccccc3)noc2C)C(C)=O)cc1` [Compound 16, N-[4-(Diethylamino)phenyl]-N-[(5-methyl-3-phenylisoxazol-4-yl)methyl]acetamide], under setting [9], the activity at 3 µM is 93.1%.

As to `Cc1onc(-c2ccccc2)c1C(=O)Nc1ccc2c(c1)nc(C)n2C(C)C` [SI15], the activity at 3 µM under setting [7] stood at 92.6%. In addition, the activity at 10 µM under setting [8] came out at 96%.

Turning to `CSc1nsc(SC)c1C(=O)Nc1ccc2oc(-c3ccccc3)cc(=O)c2c1` [SI103], under setting [9], the activity at 3 µM worked out at 96.2%. Also, the activity at 10 µM under setting [10] came to 110%.

As to `Cc1onc(-c2ccccc2)c1C(=O)Nc1nc2ccccc2n1C` [SI9], the activity at 3 µM under setting [7] amounted to 83.5%. The activity at 10 µM under setting [8] stood at 78%.

Regarding `CCN(CC)c1ccc(NC(=O)c2c(-c3ccccc3)nnn2CC(C)C)cc1` [SI68], under setting [11], the activity at 3 µM came out at 83.6%. Moreover, under setting [12], the activity at 10 µM came out at 69.1%.

For `CCN(CC)c1ccc(NC(=O)c2c(-c3c(Cl)ccc([N+](=O)[O-])c3Cl)noc2C)cc1` [Compound 39f, 3-(2,6-Dichloro-3-nitrophenyl)-N-[4-(diethylamino)phenyl]-5-methylisoxazole-4-carboxamide], under setting [7], the activity at 3 µM was 76.3%.

Consider `Cc1onc(-c2ccccc2)c1C(=O)Nc1ccc2c(c1)C(=O)CCC2` [SI14], for which the activity at 3 µM under setting [1] worked out at 107%. Moreover, under setting [2], the activity at 10 µM was determined as 98.2%.

With `CCN(CC)c1ccc(NC(=O)c2c(-c3ccc(Br)cc3)noc2C)cc1` [Compound 39i], the activity at 3 µM under setting [9] worked out at 95.1%.

In the case of `CCN(CC)c1ccc(NC(=O)c2ncoc2-c2ccco2)cc1` [Compound 47x], under setting [1], the activity at 3 µM stood at 116%. For the same compound, the activity at 10 µM under setting [2] was 116%.

As for `CCN(CC)c1ccc(/N=C/c2onc(-c3ccccc3)c2C(=O)Nc2ccc(N(CC)CC)cc2)cc1` [Compound 48], under setting [3], the activity at 3 µM came to 74.9%. In addition, the activity at 10 µM under setting [4] stood at 54.1%.
